Measured values published in US11753446B2, “Beta-hairpin peptidomimetics” (POLYPHOR AG, priority 2014, dated 2023).
Where a SMILES comes first, the peptide text is derived from it. Bridges are numbered along the chain shown (N, C = ends). [ ]: non-standard residue; d: D form. dPen = CC(C)(S)[C@@H](N)C(=O)O; Chg = N[C@H](C(=O)O)C1CCCCC1; Tle = CC(C)(C)[C@H](N)C(=O)O; dDab = NCC[C@@H](N)C(=O)O; Orn = NCCC[C@H](N)C(=O)O; Dab = NCC[C@H](N)C(=O)O

What was measured:
[1] = test system: Acinetobacter baumannii DSM 30008; format: cell-based; details: DSM 30008
Experimental: (§1) Stock solutions were kept at +4° C., light protected.
(§2) The selective antimicrobial activities of the peptides were determined in 96-well plates (Greiner, polystyrene) by the standard NCCLS broth microdilution method (National Committee for Clinical Laboratory Standards 1993. Methods for dilution antimicrobial susceptibility tests for bacteria that grow aerobically, 3rd ed. Approved standard M7-A6; National Committee for Clinical laboratory standards, Wayne, Pa.) with slight modifications. Inocula of the microorganisms were diluted into Mueller-Hinton II (MH, cation adjusted) broth and compared with a 0.5 McFarland standard to give appr. 10^6 colony forming units (CFU)/mL. Aliquots (90 μl) of inoculate were added to 10 μl of MH broth+P-80 (Polysorbate 80, 0.002% final concentration) containing the peptide in serial two-fold dilutions. The following microorganisms were used to determine antibiotic selectivity of the peptides: Escherichia coli ATCC 25922, Klebsiella pneumoniae ATCC 13883 and Acinetobacter baumannii DSM 30008.

[2] = test system: Escherichia coli ATCC 25922; format: cell-based; details: ATCC 25922
Experimental: as §1, §2

[3] = test system: Klebsiella pneumoniae ATCC 13883; format: cell-based; details: ATCC 13883
Experimental: as §1, §2

[4] = test system: human red blood cells (hRBC); experiment: Hemolysis: hemolytic activity at 100 μg/mL, 1 h at 37° C.; details: red cells of human, 1 h, 100
Experimental: Lyophilized peptides were weighed on a Microbalance (Mettler MT5) and dissolved in sterile water to a final concentration of 1 mg/mL. Stock solutions were kept at +4° C., light protected.
The peptides were tested for their hemolytic activity against human red blood cells (hRBC). Fresh hRBC were washed three times with phosphate buffered saline (PBS) and centrifuged for 5 min at 3000×g. Compounds (100 μg/mL) were incubated with 20% hRBC (v/v) for 1 h at 37° C. and shaking at 300 rpm. The final erythrocyte concentration was approximately 0.9×10^9 cells/mL. A value of 0% and 100% cell lyses, respectively, was determined by incubation of hRBC in the presence of PBS containing 0.001% acetic acid and 2.5% Triton X-100 in H2O, respectively. The samples were centrifuged, the supernatants were 8-fold diluted in PBS buffer and the optical densities (OD) were measured at 540 nm.
Percent hemolysis was calculated as follows: (OD540peptide/OD540H2O)×100%.

SMILES	Acinetobacter baumannii DSM 30008 MIC [1]	Escherichia coli ATCC 25922 MIC [2]	Klebsiella pneumoniae ATCC 13883 MIC [3]	Hemolysis at 100 μg/mL [4]
CC(C)C[C@@H]1NC(=O)[C@@H]2CCCN2C(=O)[C@H]2CCCN2C(=O)[C@H](CO)NC(=O)[C@@H]2NC(=O)[C@H](C3CCCCC3)NC(=O)[C@H](CCN)NC(=O)[C@H](Cc3c[nH]c4ccccc34)NC(=O)[C@H](CCN)NC(=O)[C@@H](CCN)NC(=O)[C@H](CCCN)NC(=O)[C@H](CCN)NC(=O)[C@H](C(C)(C)C)NC(=O)[C@H](NC1=O)C(C)(C)SSC2(C)C [Example 33, cyclo(-Leu-Pen-tBuGly-Dab-Orn-DDab-Dab-Trp-Dab-Chg-Pen-Ser-^DPro-Pro-)] (cyclo(L[dPen][Tle][Dab][Orn][dDab][Dab]W[Dab][Chg][dPen]S[dP]P); disulfide 2-11)	1 mg/L	1 mg/L	2 mg/L	1%
CC(C)C[C@@H]1NC(=O)[C@H](CCN)NC(=O)[C@@H](CCN)NC(=O)[C@H](CCCN)NC(=O)[C@H](CC(N)=O)NC(=O)[C@H](Cc2ccc(O)cc2)NC(=O)[C@@H]2CSSC[C@H](NC(=O)[C@H](C(C)(C)C)NC(=O)[C@H](CO)NC1=O)C(=O)N[C@@H](C(C)C)C(=O)N[C@H](CCN)C(=O)N[C@@H](CCCNC(=N)N)C(=O)N[C@@H](CC(C)C)C(=O)N2 [Example 4, cyclo(-Leu-Cys-Tyr-Asn-Orn-^DDab-Dab-Leu-Ser-tBuGly-Cys-Val-^DDab-Arg-)] (cyclo(CV[dDab]RLCYN[Orn][dDab][Dab]LS[Tle]); disulfide 1-6)	0.25 mg/L	0.75 mg/L	0.5 mg/L	4%
CC(C)C[C@@H]1NC(=O)[C@H](CCCNC(=N)N)NC(=O)[C@@H](CCN)NC(=O)[C@H](C)NC(=O)[C@@H]2CSSC[C@H](NC1=O)C(=O)N[C@@H](Cc1ccc(O)cc1)C(=O)N[C@@H](CC(N)=O)C(=O)N[C@@H](CCCN)C(=O)N[C@H](CCN)C(=O)N[C@@H](CCN)C(=O)N[C@@H](Cc1c[nH]c3ccccc13)C(=O)N[C@@H](CO)C(=O)N[C@@H](Cc1ccc(O)cc1)C(=O)N2 [Example 71, cyclo(-Leu-Cys-Tyr-Asn-Orn-^DDab-Dab-Trp-Ser-Tyr-Cys-Ala-^DDab-Arg-)] (HELM PEPTIDE1{A.[NCC[C@@H](N[*:1])C(=O)[*:2]].R.L.C.Y.N.[Orn].[NCC[C@@H](N[*:1])C(=O)[*:2]].[Dab].W.S.Y.C}$PEPTIDE1,PEPTIDE1,5:R3-14:R3|PEPTIDE1,PEPTIDE1,1:R1-14:R2$$$V2.0)	1.5 mg/L	1.5 mg/L	1 mg/L	1%
CC(C)C[C@@H]1NC(=O)[C@H](CCN)NC(=O)[C@@H](CCN)NC(=O)[C@H](CO)NC(=O)[C@@H]2CSSC[C@H](NC1=O)C(=O)N[C@@H](Cc1ccc(O)cc1)C(=O)N[C@@H](CC(N)=O)C(=O)N[C@@H](CCCN)C(=O)N[C@H](CCN)C(=O)N[C@@H](CCN)C(=O)N[C@@H](Cc1c[nH]c3ccccc13)C(=O)N[C@@H](CO)C(=O)N[C@@H](Cc1ccc(O)cc1)C(=O)N2 [Example 8, cyclo(-Leu-Cys-Tyr-Asn-Orn-^DDab-Dab-Trp-Ser-Tyr-Cys-Ser-^DDab-Dab-)] (HELM PEPTIDE1{C.S.[NCC[C@@H](N[*:1])C(=O)[*:2]].[Dab].L.C.Y.N.[Orn].[NCC[C@@H](N[*:1])C(=O)[*:2]].[Dab].W.S.Y}$PEPTIDE1,PEPTIDE1,1:R3-6:R3|PEPTIDE1,PEPTIDE1,1:R1-14:R2$$$V2.0)	1.5 mg/L	1 mg/L	0.5 mg/L	1%
